Assay results as given in patent US20100075960A1 (priority 2006, published 2010).
Structures can show the parent of a compound that is named as a salt.

System: HCT116
Test: Inhibition of cell proliferation, HCT116
Type: cell-based
Conditions: Homo sapiens, HCT-116; 72 h treatment; methylene blue or CellTiter-Glo
Protocol: II. Inhibition of Cell Proliferation by PLK1 Inhibitors.
Exponentially growing cell lines of different tumor origins, cultured in appropriate media containing 10% fetal bovine serum at 37° C. in a 5% CO2 incubator were plated in 96 or 384-well plates. Twenty four hours post-plating, cells were treated with different concentrations of test compounds ranging from 20 μM to 0.04 nM. Several wells were left untreated as a control. Seventy two hours post-treatment, cell numbers were determined using different techniques; 100 μl per well of methylene blue (Sigma M9140) (0.5% in 50:50 Ethanol:water), or 10-100 μl per well of CellTiter-Glo (Promega #G7573), depending on well size. For methylene blue staining, stain was incubated at room temperature for 30 minutes before plates were rinsed and dye solubilized in 1% N-lauroyl sarcosine, sodium salt, (Sigma L5125, in PBS). Plates were read on a microplate reader, measuring the OD at 620 nm. For CellTiter-Glo, plates were incubated at room temperature for 15 minutes and the chemiluminescent signal was read on the Victor V or Envison 2100 reader.
Percent inhibition of cell growth was expressed as percent proliferation relative to 100% proliferation (control). Concentration of test compound that inhibited 50% of cell growth (IC50) was determined by 4 parameter fit of data using XLfit, (value of no cell control was substracted from all samples for background). The data are shown in Table 1 and Table 2 below and represent a compilation of several different experiments each performed using the general parameters outlined above, although minor variations may have been employed in some instances, in Table 1 and Table 2, +=IC50>1 μM; ++=IC50 0.5-1 μM: +++=IC50<0.5 μM.

Row | Compound | IC50
1 | C[C@@H](Oc1cc(-n2cnc3cc(Cl)ccc32)sc1C(N)=O)c1cccc(OC2CCN(CCN)CC2)c1Cl [Example 22, 3-{[(1R)-1-(3-{[1-(2-aminoethyl)-4-piperidinyl]oxy}-2-chlorophenyl)ethyl]oxy}-5-(5-chloro-1H-benzimidazol-1-yl)-2-thiophenecarboxamide] | < 0.5 µM
2 | C[C@@H](Oc1cc(-n2cnc3cc(Cl)ccc32)sc1C(N)=O)c1cccc(OC2CCN(CCS(C)(=O)=O)CC2)c1Cl [Example 23, 5-(5-Chloro-1H-benzimidazol-1-yl)-3-({(1R)-1-[2-chloro-3-({1-[2-(methylsulfonyl)ethyl]-4-piperidinyl}oxy)phenyl]ethyl}oxy)-2-thiophenecarboxamide] | < 0.5 µM
3 | CC(C)N1CCC(Oc2cccc([C@@H](C)Oc3cc(-n4cnc5cc(Cl)ccc54)sc3C(N)=O)c2Cl)CC1 [Example 24, 5-(5-Chloro-1H-benzimidazol-1-yl)-3-{[(1R)-1-(2-chloro-3-{[1-(1-methylethyl)-4-piperidinyl]oxy}phenyl)ethyl]oxy}-2-thiophenecarboxamide] | < 0.5 µM
4 | C[C@@H](Oc1cc(-n2cnc3cc(-c4cnn(C)c4)ccc32)sc1C(N)=O)c1cccc(OCCN2CCOCC2)c1Cl [Example 25, 3-{[(1R)-1-(2-chloro-3-{[2-(4-morpholinyl)ethyl]oxy}phenyl)ethyl]oxy}-5-[5-(1-methyl-1H-pyrazol-4yl)-1H-benzimidazol-1-yl]-2-thiophenecarboxamide] | < 0.5 µM
5 | C[C@@H](Oc1cc(-n2cnc3cc(Cl)ccc32)sc1C(N)=O)c1cccc(OCCN2CCOCC2)c1Cl [Example 26, 5-(5-Chloro-1H-benzimidazol-1-yl)-3-{[(1R)-1-(2-chloro-3-{[2-(4-morpholinyl)ethyl]oxy}phenyl)ethyl]oxy}-2-thiophenecarboxamide] | < 0.5 µM
6 | C[C@@H](Oc1cc(-n2cnc3cc(Cl)ccc32)sc1C(N)=O)c1cccc(OC[C@H]2CNCCO2)c1Cl [Example 27, 5-(5-Chloro-1H-benzimidazol-1-yl)-3-{[(1R)-1-(2-chloro-3-{[(2R)-2-morpholinomethyl]oxy}phenyl)ethyl]oxy}-2-thiophenecarboxamide] | < 0.5 µM
7 | C[C@@H](Oc1cc(-n2cnc3cc(Cl)ccc32)sc1C(N)=O)c1cccc(OC[C@@H]2CNCCO2)c1Cl [Example 28, 5-(5-Chloro-1H-benzimidazol-1-yl)-3-{[(1R)-1-(2-chloro-3-{[(2S)-2-morpholinomethyl]oxy}phenyl)ethyl]oxy}-2-thiophenecarboxamide] | < 0.5 µM
8 | C[C@@H](Oc1cc(-n2cnc3cc(-c4cnn(C)c4)ccc32)sc1C(N)=O)c1cccc(OC2CCN(CCF)CC2)c1Cl [Example 29, 3-{[(1R)-1-(2-Chloro-3-{[1-(2-fluoroethyl)-4-piperidinyl]oxy}phenyl)ethyl]oxy}-5-[5-(1-methyl-1H-pyrazol-4-yl)-1H-benzimidazol-1-yl]-2-thiophenecarboxamide] | < 0.5 µM
9 | C[C@@H](Oc1cc(-n2cnc3cc(-c4cnn(C)c4)ccc32)sc1C(N)=O)c1cccc(OC2CCN(CCC(F)(F)F)CC2)c1Cl [Example 30, 3-{[(1R)-1-(2-chloro-3-{[1-(3,3,3-trifluoropropyl)-4-piperidinyl]oxy}phenyl)ethyl]oxy}-5-[5-(1-methyl-1H-pyrazol-4-yl)-1H-benzimidazol-1-yl]-2-thiophenecarboxamide] | < 0.5 µM
10 | C[C@@H](Oc1cc(-n2cnc3cc(Cl)ccc32)sc1C(N)=O)c1ccc(F)c(OC2CCN(C)CC2)c1Cl [Example 32, 5-(5-Chloro-1H-benzimidazol-1yl)-3-[((1R)-1-{2-chloro-4-fluoro-3-[(1-methyl-4-piperidinyl)oxy]phenyl}ethyl)oxy]-2-thiophenecarboxamide] | < 0.5 µM
11 | C[C@@H](Oc1cc(-n2cnc3cc(-c4cnn(C)c4)ccc32)sc1C(N)=O)c1ccc(F)c(OC2CCNCC2)c1Cl [Example 33, 3-({(1R)-1-[2-Chloro-4-fluoro-3-(4-piperidinyloxy)phenyl]ethyl}oxy)-5-[5-(1-methyl-1H-pyrazol-4-yl)-1H-benzimidazol-1-yl]-2-thiophenecarboxamide] | < 0.5 µM
12 | C[C@@H](Oc1cc(-n2cnc3cc(-c4cnn(C)c4)ccc32)sc1C(N)=O)c1ccc(F)c(OC2CCN(C)CC2)c1Cl [Example 34, 3-[((1R)-1-{2-Chloro-4-fluoro-3-[(1-methyl-4-piperidinyl)oxy]phenyl}ethyl)oxy]-5-[5-(1-methyl-1H-pyrazol-4-yl)-1H-benzimidazol-1-yl]-2-thiophenecarboxamide trifluoroacetate] | < 0.5 µM
13 | C[C@@H](Oc1cc(-n2cnc3cc(-c4cnn(C)c4)ccc32)sc1C(N)=O)c1ccc(F)c(OC2CCN(CCF)CC2)c1Cl [Example 35, 3-{[(1R)-1-(2-Chloro-4-fluoro-3-{[1-(2-fluoroethyl)-4-piperidinyl]oxy}phenyl)ethyl]oxy}-5-[5-(1-methyl-1H-pyrazol-4-yl)-1H-benzimidazol-1-y]-2-thiophenecarboxamide] | < 0.5 µM
14 | C[C@@H](Oc1cc(-n2cnc3cc(-c4cnn(C)c4)ccc32)sc1C(N)=O)c1ccc(F)c(OC2CCN(CCS(C)(=O)=O)CC2)c1Cl [Example 36, 3-({(1R)-1-[2-Chloro-4-fluoro-3-({1-[2-(methylsulfonyl)ethyl]-4-piperidinyl}oxy)phenyl]ethyl}oxy)-5-[5-(1-methyl-1H-pyrazol-4-yl)-1H-benzimidazol-1-yl]-2-thiophenecarboxamide] | < 0.5 µM
15 | C[C@@H](Oc1cc(-n2cnc3cc(-c4cc[n+]([O-])cc4)ccc32)sc1C(N)=O)c1cccc(OC2CCNCC2)c1Cl [Example 37, 3-({(1R)-1-1-[2-Chloro-3-(4-piperidinyloxy)phenyl]ethyl}oxy)-5-[5-(1-oxido-4-pyridinyl)-1H-benzimidazol-1-yl]-2-thiophenecarboxamide] | > 1 µM
16 | C[C@@H](Oc1cc(-n2cnc3cc(-c4cnn(C)c4)ccc32)sc1C(N)=O)c1c(F)ccc(OC2CCN(C)CC2)c1Cl [Example 38, 3-[((1R)-1-{2-Chloro-6-fluoro-3-[(1-methyl-4-piperidinyl)oxy]phenyl}ethyl)oxy]-5-[5-(1-methyl-1H-pyrazol-4-yl)-1H-benzimidazol-1-yl]-2-thiophenecarboxamide] | < 0.5 µM
17 | COc1cc2ncn(-c3cc(O[C@H](C)c4cccc(OCC5CCN(C(=O)OC(C)(C)C)CC5)c4Cl)c(C(N)=O)s3)c2cc1OC [Example 39, 1,1-Dimethylethyl 4-[({3-[(1R)-1-({2-(aminocarbonyl)-5-[5,6-bis(methyloxy)-1H-benzimidazol-1-yl]-3-thienyl}oxy)ethyl]-2-chlorophenyl}oxy)methyl]-1-piperidinecarboxylate] | 0.5 to 1 µM
18 | COc1cc2ncn(-c3cc(O[C@H](C)c4cccc(OCC5CCNCC5)c4Cl)c(C(N)=O)s3)c2cc1OC [Example 40, 5-[5,6-Bis(methyloxy)-1H-benzimidazol-1-yl]-3-[((1R)-1-{2-chloro-3-[(4-piperidinylmethyl)oxy]phenyl}ethyl)oxy]-2-thiophenecarboxamide] | < 0.5 µM
19 | COc1cc2ncn(-c3cc(O[C@H](C)c4cccc(OCC5CCN(C)CC5)c4Cl)c(C(N)=O)s3)c2cc1OC [Example 41, 5-[5,6-Bis(methyloxy)-1H-benzimidazol-1-yl]-3-{[(1R)-1-(2-chloro-3-{[(1-methyl-4-piperidinyl)methyl]oxy}phenyl)ethyl]oxy}-2-thiophenecarboxamide] | < 0.5 µM
20 | COc1cc2ncn(-c3cc(O[C@H](C)c4cccc(OCCN5CCN(C)CC5)c4Cl)c(C(N)=O)s3)c2cc1OC [Example 42, 5-[5,6-Bis(methyloxy)-1H-benzimidazol-1-yl]-3-{[(1R)-1-(2-chloro-3-{[2-(4-methyl-1-piperazinyl)ethyl]oxy}phenyl)ethyl]oxy}-2-thiophenecarboxamide] | < 0.5 µM
21 | C[C@@H](Oc1cc(-n2cnc3cc(-c4cnn(C)c4)ccc32)sc1C(N)=O)c1cccc(OCC2CCN(C(=O)OC(C)(C)C)CC2)c1Cl [Example 43, 1,1-Dimethylethyl 4-[({3-[(1R)-1-({2-(aminocarbonyl)-5-[5-(1-methyl-1H-pyrazol-4-yl)-1H-benzimidazol-1-yl]-3-thienyl}oxy)ethyl]-2-chlorophenyl}oxy)methyl]-1-piperidinecarboxylate] | > 1 µM
22 | C[C@@H](Oc1cc(-n2cnc3cc(-c4cnn(C)c4)ccc32)sc1C(N)=O)c1cccc(OCC2CCNCC2)c1Cl [Example 44, 3-[((1R)-1-{2-Chloro-3-[(4-piperidinylmethyl)oxy]phenyl}ethyl)oxy]-5-[5-(1-methyl-1H-pyrazol-4-yl)-1H-benzimidazol-1-yl]-2-thiophenecarboxamide trifluoroacetate] | < 0.5 µM
23 | C[C@@H](Oc1cc(-n2cnc3cc(-c4cnn(C)c4)ccc32)sc1C(N)=O)c1cccc(OC2CCN(C(=O)OC(C)(C)C)CC2)c1Cl [Example 46, 1,1-Dimethylethyl 4-({3-[(1R)-1-({2-(aminocarbonyl)-5-[5-(1-methyl-1H-pyrazol-4-yl)-1H-benzimidazol-1-yl]-3-thienyl}oxy)ethyl]-2-chlorophenyl}oxy)-1-piperidinecarboxylate] | < 0.5 µM
